Tests used:
Test in all cases: Caliper Mobility Shift Assay, kinase inhibition
Type in all cases: biochemical
Conditions in all cases: ATP by Km value
JAK3 = target: T1, JAK3 (Homo sapiens, UniProt P52333)
T1 sequence (P52333 1-1124): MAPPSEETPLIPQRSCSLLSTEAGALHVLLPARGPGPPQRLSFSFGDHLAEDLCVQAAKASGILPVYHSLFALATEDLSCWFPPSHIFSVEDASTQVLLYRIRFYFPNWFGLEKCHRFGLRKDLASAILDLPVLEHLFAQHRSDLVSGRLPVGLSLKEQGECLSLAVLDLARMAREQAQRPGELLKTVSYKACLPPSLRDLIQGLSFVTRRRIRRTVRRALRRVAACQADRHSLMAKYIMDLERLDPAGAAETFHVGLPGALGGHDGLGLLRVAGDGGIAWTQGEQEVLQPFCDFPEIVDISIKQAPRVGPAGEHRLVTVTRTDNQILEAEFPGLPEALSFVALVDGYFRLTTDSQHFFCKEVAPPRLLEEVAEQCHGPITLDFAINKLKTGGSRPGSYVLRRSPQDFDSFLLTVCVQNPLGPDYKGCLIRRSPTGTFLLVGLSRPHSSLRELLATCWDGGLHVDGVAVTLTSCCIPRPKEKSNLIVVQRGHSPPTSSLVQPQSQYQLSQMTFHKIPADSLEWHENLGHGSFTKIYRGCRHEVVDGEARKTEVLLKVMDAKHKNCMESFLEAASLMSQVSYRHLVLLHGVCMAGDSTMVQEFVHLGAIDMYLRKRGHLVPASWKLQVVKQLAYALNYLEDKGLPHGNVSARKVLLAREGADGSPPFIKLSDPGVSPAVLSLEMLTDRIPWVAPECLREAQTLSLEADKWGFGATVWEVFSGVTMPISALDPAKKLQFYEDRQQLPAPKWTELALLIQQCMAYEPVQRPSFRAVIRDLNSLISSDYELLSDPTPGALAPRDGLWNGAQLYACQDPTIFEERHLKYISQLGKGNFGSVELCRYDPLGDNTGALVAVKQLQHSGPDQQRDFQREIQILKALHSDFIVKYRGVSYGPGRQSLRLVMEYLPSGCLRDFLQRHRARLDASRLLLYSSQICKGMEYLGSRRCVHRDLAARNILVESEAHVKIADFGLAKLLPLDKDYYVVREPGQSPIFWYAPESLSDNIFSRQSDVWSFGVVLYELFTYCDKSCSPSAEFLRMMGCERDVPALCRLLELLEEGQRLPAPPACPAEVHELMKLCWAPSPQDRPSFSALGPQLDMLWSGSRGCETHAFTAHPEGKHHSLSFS

JAK1 = JAK1 (Homo sapiens, UniProt P23458)
JAK2 = JAK2 (Homo sapiens, UniProt O60674)
Chain of JAK2 (O60674 whole entry, species assumed): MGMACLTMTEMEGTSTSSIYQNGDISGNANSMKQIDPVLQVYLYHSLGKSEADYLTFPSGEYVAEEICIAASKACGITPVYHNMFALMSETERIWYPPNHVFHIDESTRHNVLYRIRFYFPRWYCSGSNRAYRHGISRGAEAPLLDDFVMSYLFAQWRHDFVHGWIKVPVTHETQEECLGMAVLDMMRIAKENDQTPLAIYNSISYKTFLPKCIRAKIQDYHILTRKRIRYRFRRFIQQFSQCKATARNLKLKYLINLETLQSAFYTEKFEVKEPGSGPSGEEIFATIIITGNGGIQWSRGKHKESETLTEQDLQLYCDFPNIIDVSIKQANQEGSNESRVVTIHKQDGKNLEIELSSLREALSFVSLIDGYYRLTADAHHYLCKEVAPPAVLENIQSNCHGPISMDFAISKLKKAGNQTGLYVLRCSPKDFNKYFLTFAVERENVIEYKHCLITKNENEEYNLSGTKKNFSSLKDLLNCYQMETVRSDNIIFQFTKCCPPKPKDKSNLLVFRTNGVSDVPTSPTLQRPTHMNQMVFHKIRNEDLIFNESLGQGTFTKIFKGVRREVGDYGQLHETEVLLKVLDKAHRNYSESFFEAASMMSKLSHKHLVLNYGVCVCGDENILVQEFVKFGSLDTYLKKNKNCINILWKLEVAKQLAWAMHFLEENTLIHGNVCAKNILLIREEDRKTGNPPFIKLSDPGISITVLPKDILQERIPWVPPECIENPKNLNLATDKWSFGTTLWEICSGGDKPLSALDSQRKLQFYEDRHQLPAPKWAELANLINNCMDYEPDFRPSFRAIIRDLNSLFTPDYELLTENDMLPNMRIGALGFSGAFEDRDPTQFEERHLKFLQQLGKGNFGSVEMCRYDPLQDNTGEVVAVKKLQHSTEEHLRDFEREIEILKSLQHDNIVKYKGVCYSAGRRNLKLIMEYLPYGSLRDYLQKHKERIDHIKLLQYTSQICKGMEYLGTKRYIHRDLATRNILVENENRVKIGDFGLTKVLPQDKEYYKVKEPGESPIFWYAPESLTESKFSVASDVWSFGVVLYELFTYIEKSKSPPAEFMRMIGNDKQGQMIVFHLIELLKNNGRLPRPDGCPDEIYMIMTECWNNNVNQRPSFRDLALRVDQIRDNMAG

Chain of JAK1 (P23458 whole entry, species assumed): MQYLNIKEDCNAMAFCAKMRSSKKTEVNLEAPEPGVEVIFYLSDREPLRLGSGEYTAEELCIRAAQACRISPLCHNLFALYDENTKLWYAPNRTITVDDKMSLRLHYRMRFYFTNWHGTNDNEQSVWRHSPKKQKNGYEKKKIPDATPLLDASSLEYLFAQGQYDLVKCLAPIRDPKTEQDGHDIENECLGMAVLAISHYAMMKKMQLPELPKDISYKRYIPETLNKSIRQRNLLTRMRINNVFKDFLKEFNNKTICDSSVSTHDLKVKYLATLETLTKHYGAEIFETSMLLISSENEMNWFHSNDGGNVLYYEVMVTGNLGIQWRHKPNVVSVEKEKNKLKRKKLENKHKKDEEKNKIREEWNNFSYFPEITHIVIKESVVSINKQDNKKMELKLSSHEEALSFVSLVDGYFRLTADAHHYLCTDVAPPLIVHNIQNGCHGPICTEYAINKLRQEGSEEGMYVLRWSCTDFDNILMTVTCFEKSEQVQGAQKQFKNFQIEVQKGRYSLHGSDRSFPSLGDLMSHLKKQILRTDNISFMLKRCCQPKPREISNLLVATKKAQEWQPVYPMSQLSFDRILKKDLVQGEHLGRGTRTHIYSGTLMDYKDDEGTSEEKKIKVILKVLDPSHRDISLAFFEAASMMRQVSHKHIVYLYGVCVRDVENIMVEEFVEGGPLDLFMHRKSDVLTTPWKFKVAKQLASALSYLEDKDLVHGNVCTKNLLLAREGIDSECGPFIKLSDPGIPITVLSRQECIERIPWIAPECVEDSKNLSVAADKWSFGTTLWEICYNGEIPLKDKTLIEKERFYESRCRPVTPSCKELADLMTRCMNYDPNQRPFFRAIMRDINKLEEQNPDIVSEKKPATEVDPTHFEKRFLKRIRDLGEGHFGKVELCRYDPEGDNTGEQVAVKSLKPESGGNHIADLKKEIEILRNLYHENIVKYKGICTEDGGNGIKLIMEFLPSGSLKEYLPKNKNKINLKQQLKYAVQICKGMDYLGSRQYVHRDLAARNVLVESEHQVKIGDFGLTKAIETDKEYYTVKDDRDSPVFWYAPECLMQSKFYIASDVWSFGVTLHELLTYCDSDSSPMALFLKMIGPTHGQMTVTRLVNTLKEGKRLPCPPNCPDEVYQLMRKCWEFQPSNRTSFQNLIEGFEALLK

| SMILES | IC50 (JAK3) [nM] | IC50 (JAK1) [nM] | IC50 (JAK2) [nM] |
| --- | --- | --- | --- |
| CC(C)S(=O)(=O)N1CC(CC#N)(n2cc(-c3ncnc4[nH]ccc34)c3ccc(Cl)cc32)C1 [Example 28, 2-(1-(isopropylsulfonyl)-3-(6-chloro-3-(7H-pyrrole[2,3-d]pyrimidine-4-yl)-1H-indole-1-yl)azetidine-3-yl)acetonitrile] | 64 | 6.5 | 2.4 |
| CCS(=O)(=O)N1CC(CC#N)(n2cc(-c3ncnc4[nH]ccc34)c3ccc(CC#N)cc32)C1 [Example 51, 2-(1-(ethylsulfonyl)-3-(6-ethylcyano-3-(7H-pyrrole[2,3-d]pyrimidine-4-yl)-1H-indole-1-yl)azetidine-3-yl)acetonitrile] | 172 | 45.5 | 41.6 |
| CCCS(=O)(=O)N1CC(CC#N)(n2cc(-c3ncnc4[nH]ccc34)c3c(F)cc(F)cc32)C1 [Example 43, 2-(1-(propylsulfonyl)-3-(6,8-difluoro-3-(7H-pyrrole[2,3-d]pyrimidine-4-yl)-1H-indole-1-yl)azetidine-3-yl)acetonitrile] | 67 | 13.3 | 28.4 |
| CCS(=O)(=O)N1CC(CC#N)(n2cc(-c3ncnc4[nH]ccc34)c3ccc(C)cc32)C1 [Example 54, 2-(1-(ethylsulfonyl)-3-(6-methyl-3-(7H-pyrrole[2,3-d]pyrimidine-4-yl)-1H-indole-1-yl)azetidine-3-yl)acetonitrile] | 36 | 15.2 | 2.5 |
| CCS(=O)(=O)N1CC(CC#N)(n2cc(-c3ncnc4[nH]ccc34)c3ccc(Cl)cc32)C1 [Example 26, 2-(1-(ethylsulfonyl)-3-(6-chloro-3-(7H-pyrrole[2,3-d]pyrimidine-4-yl)-1H-indole-1-yl)azetidine-3-yl)acetonitrile] | 34 | 3.5 | 0.72 |
| CS(=O)(=O)N1CC(CC#N)(n2cc(-c3ncnc4[nH]ccc34)c3ccc(F)c(F)c32)C1 [Example 32, 2-(1-(methylsulfonyl)-3-(5,6-difluoro-3-(7H-pyrrole[2,3-d]pyrimidine-4-yl)-1H-indole-1-yl)azetidine-3-yl)acetonitrile] | 124 | 4.5 | 6.3 |

Results, then the molecule that gave them:

| IC50 (JAK3) [nM] | IC50 (JAK1) [nM] | IC50 (JAK2) [nM] | SMILES |
| --- | --- | --- | --- |
| 90 | 25.4 | 2.8 | CCOc1ccc2c(-c3ncnc4[nH]ccc34)cn(C3(CC#N)CN(S(=O)(=O)CC)C3)c2c1 [Example 59, 2-(1-(ethylsulfonyl)-3-(6-ethoxyl-3-(7H-pyrrole[2,3-d]pyrimidine-4-yl)-1H-indole-1-yl)azetidine-3-yl)acetonitrile] |
| 67 | 7 | 3.5 | N#CCC1(n2cc(-c3ncnc4[nH]ccc34)c3ccccc32)CN(S(=O)(=O)N2CCCC2)C1 [Example 10] |
| 72 | 10.5 | 4.6 | CCS(=O)(=O)N1CC(CC#N)(n2cc(-c3ncnc4[nH]ccc34)c3c(F)ccc(F)c32)C1 [Example 48, 2-(1-(ethylsulfonyl)-3-(5,8-difluoro-3-(7H-pyrrole[2,3-d]pyrimidine-4-yl)-1H-indole-1-yl)azetidine-3-yl)acetonitrile] |
| 58 | 30.5 | 11.6 | CCS(=O)(=O)N1CC(CC#N)(n2cc(-c3ncnc4[nH]ccc34)c3cc(F)cc(F)c32)C1 [Example 47, 2-(1-(ethylsulfonyl)-3-(5,7-difluoro-3-(7H-pyrrole[2,3-d]pyrimidine-4-yl)-1H-indole-1-yl)azetidine-3-yl)acetonitrile] |
| 17 | 5.4 | 1.4 | CCS(=O)(=O)N1CC(CC#N)(n2cc(-c3ncnc4[nH]ccc34)c3ccc(CC(F)(F)F)cc32)C1 [Example 53, 2-(1-(ethylsulfonyl)-3-(6-trifluoroethyl-3-(7H-pyrrole[2,3-d]pyrimidine-4-yl)-1H-indole-1-yl)azetidine-3-yl)acetonitrile] |

— patent US10385056B2, “4-substituted pyrrolo[2,3-d]pyrimidine compound and use thereof” (JIANGSU CAREFREE PHARMACEUTICAL CO., LTD, priority 2014, dated 2019)
